Reference: publication PMC12474757, “Paving the way for future PSMA inhibitors: insights from comparative preclinical evaluations of structure modifications” (EJNMMI Radiopharmacy and Chemistry, 2025)
Like-named read-outs stand apart in the source and are kept apart here. Blank lines part the entries; values can stand above or below the molecule they belong to.

Assays:
PSMA = PSMA affinity, cited from earlier work
[1] = system: LNCaP tumour-bearing mice; experiment: Ex vivo biodistribution in LNCaP tumour-bearing mice; design: species or system SCID mice; conditions: for tumour-to-blood ratio / tumour-to-muscle ratio / tumour-to-kidney ratio: mean ± SD, n = 4
Method: The eight-week-old male SCID mice (Charles River, Massachusetts, USA) were used to generate the mouse tumour model. The implantation of 10 million LNCaP cells (ATCC, Virginia, USA) per mouse in a 1:1 mixture of Matrigel matrix (Corning, New York, USA) was performed subcutaneously behind the right shoulder of the mouse. Tumours of adequate size, representing a volume of 100–300 mm³, were observed after five to six weeks.
Ex vivo biodistribution of PSMA inhibitors in tumor-bearing mice was conducted as follows. Concisely, 30 µL of acetate buffer was added to the each ⁶⁸Ga -labelled inhibitor, namely: ⁶⁸Ga-P15, ⁶⁸Ga-P16, ⁶⁸Ga-P19, and ⁶⁸Ga-PSMA-617 to achieve physiological pH. Mice were r.o. injected with 100 µL of labelled inhibitor (2 MBq, approximately 0.5 µg of the inhibitor). Animals were divided into two groups for biodistribution studies at 1 and 2 h after administration of the respective ^68Ga-labelled PSMA inhibitor. The animals were sacrificed and autopsied after euthanasia, and organs: spleen, pancreas, stomach, intestine, kidney, liver, heart, lung, muscle, bone, and tumour were collected in scintillation vials. The vials containing the samples were weighed and measured in a Wizard2 gamma counter (PerkinElmer, USA). The measured values were then adjusted for radionuclide decay and expressed as a percentage of administered dose per gram of organ (%ID/g). The NanoScan® hybrid Positron Emission Tomography/Computed Tomography (PET/CT) machine (Mediso, Budapest, Hungary) was used for in vivo imaging specifically whole-body helical PET/CT scans. Imaging settings were: single field of view (FOV) PET scans (98.5 mm) which took 10 min for each mouse and helical CT scans (50 kVp/980 µA, 720 projections) both took place one hour after the administration. Each mouse received an injection of approximately 10 MBq of tested radiopharmaceutical. To prevent the mice’s eyes from drying out during anaesthesia eye ointment (Ophthalmo-Azulen, Zentiva, CR) was applied. Image reconstruction was performed using Mediso Tera-Tomo 3D PET iterative reconstruction (Mediso Medical Imaging Systems, Budapest, Hungary). Both reconstruction and data evaluation were performed in Mediso InterView FUSION software (Mediso Medical Imaging Systems, Budapest, Hungary) (Mediso, Budapest, Hungary). Final images were normalised to injected activity and animal weight. All organs with radiopharmaceutical accumulation were roughly delineated on the images, while their SUVmax value was recorded. The SUV41% (Standardized Uptake Value 41%) was then calculated as 41% of each SUVmax value of given hotspot and the ROI was delineated based on this value (Boellaard et al. [2015]). All images were exported in maximum intensity projection (MIP) mode. The results from the ex vivo biodistribution study were subjected to statistical analysis, namely unpaired Student’s t-test (Microsoft Excel 365, USA).

[2] = Radiochemical stability in physiological pH water environment; format: physicochemical; conditions: pH 7, 37 °C; for Stability in Physiological pH (%): radiochemical purity, n = 1
Method: (§1) Quality control, i.e. radiochemical purity, of the ^68Ga-labelled PSMA inhibitors was evaluated by analytical high performance liquid chromatography (HPLC; Dionex UltiMate 3000, Thermo Scientific, Waltham, Massachusetts, USA) using the following equipment: ACE 3 C18 column; 150 × 3 mm, 3 μm (Advanced Chromatography Technologies Ltd, Aberdeen, UK), with gradient elution A: H2O/acetonitrile (ACN); B:0.1% trifluoroacetic acid (TFA)/H2O: 0–3 min, 0% ACN; 3–10 min, 0 − 50% ACN; 10–13 min, 50 − 80% ACN; 13–15 min, 80–0% ACN, for 15 min at a flow rate of 1 mL/min. Radiometric detection was performed using a GABI Star radiodetector (Raytest GmbH, Straubenhardt, Germany) and for chromatogram quantification Chromatography Data System (CDS) - Chromeleon software (Thermo Scientific, USA) was used. The actual sample injection was performed using a Hamilton microinjector (Hamilton, USA).
Radiochemical stability in a physiological pH water environment was determined as follows: 100 µL of acetate buffer (1.1 mol/L) was added to the labelled preparation and the pH was then checked with a pH indicator paper to be 7. The mixture was further incubated at 37 °C and after 30, 60 and 120 min, 10 µL aliquot was used for HPLC analysis of radiochemical purity.

[3] = Binding to human plasma proteins; format: in vitro ADME; conditions: human plasma, 37 °C, n = 2, read-out: Protein binding (%) (converted)
Method: (§2) Binding to human plasma proteins was determined following this procedure: 10 µL of the ⁶⁸Ga-P15 with radioactivity of 45 kBq/100 µL was mixed with 190 µL of human plasma. The sample was then incubated at 37 °C. After 0, 30, 60 and 120 min 25 µL of the sample was collected, applied to the appropriate column and centrifuged at 2000 g for 2 minutes. The radioactivity of the samples was then measured using a gamma counter 2480 Wizard^2 (PerkinElmer, Waltham, MA, USA), and then the binding to plasma proteins was calculated using the following formula % plasma protein binding = (Aelution/Atotal)×100. The same procedure was applied when determining binding to plasma proteins of ⁶⁸Ga-P16, ⁶⁸Ga-P19, and ⁶⁸Ga-PSMA-617.

human plasma proteins [4] = experiment: Binding to human plasma proteins; format: in vitro ADME; conditions: for Protein binding (%): human plasma, 37 °C, n = 2
Method: as §2

[5] = Stability in human plasma/serum (radiochemical purity by HPLC); format: in vitro ADME; conditions: radiochemical purity, 37 °C, n = 1
Method: as §1
Plasma stability was determined as follows. To 100 µL of ⁶⁸Ga-P15 with radioactivity of 45 kBq/100 µL, 400 µL of human plasma was added and mixed. The mixture was incubated at 37 °C and 100 µL samples were taken at 30, 60 and 120 min. These samples were then mixed with 200 µL of acetonitrile and placed on a shaker for 1 min. The sample was then centrifuged at 15,000 rpm for 3 min. After centrifugation, the supernatant was collected for radiochemical purity analysis by HPLC. The same procedure was applied when determining plasma stability of ⁶⁸Ga-P16, ⁶⁸Ga-P19, and ⁶⁸Ga-PSMA-617.

human plasma proteins [6] = conditions: cited from earlier work
[7] = Stability in human plasma/serum (radiochemical purity by HPLC); format: in vitro ADME; conditions: 37 °C, incubation time 0 min, n = 1
mouse serum proteins = system: mouse serum proteins; design: method as in Umbricht et al. [2018]; conditions: ref Umbricht et al. [2018]; cited from earlier work

SMILES: O=C(O)CCC(NC(=O)NC(CCC(=O)O)C(=O)O)C(=O)O (centres unmarked) [Glu-urea-Glu]
- Ki (PSMA; ref Kozikowski et al. [2001]): 47 nM

SMILES: NCCCCC(NC(=O)NC(CCC(=O)O)C(=O)O)C(=O)O (centres unmarked) [Glu-urea-Lys]
- Ki (PSMA; ref Banerjee et al. [2008]): 15.2 nM

- specific accumulation (tumour), fold lower than [68Ga]Ga-PSMA-617 ([1]; one-hour p.i.): 7 fold
- specific accumulation (tumour), fold lower than [68Ga]Ga-PSMA-617 ([1]; two-hours p.i.): more than 17.5 fold
SMILES: O=C(O)CC[C@H](NC(=O)N[C@@H](CCC(=O)N[C@H](Cc1ccc2ccccc2c1)C(=O)N[C@H]1CC[C@H](NC(=O)CN2CCN(CC(=O)O)CCN(CC(=O)O)CCN(CC(=O)O)CC2)CC1)C(=O)O)C(=O)O [P15, Glu-urea-Glu-2-Nal-D-Ala-NH-CHX-NH-DOTA]

- Radiochemical purity in physiological pH environment ([2]; each time-point tested (30, 60, 120 min)): highest stability
- tumour-to-blood ratio ([1]; two-hours p.i.): 9.1 ± 1.7
- tumour-to-muscle ratio ([1]; two-hours p.i.): 47.8 ± 12.4
SMILES: O=C(O)CC[C@H](NC(=O)N[C@@H](CCCCNC(=O)[C@@H](NC(=O)c1ccc(CNC(=O)CN2CCN(CC(=O)O)CCN(CC(=O)O)CCN(CC(=O)O)CC2)cc1)C(c1ccccc1)c1ccccc1)C(=O)O)C(=O)O [P19, Glu-urea-Lys-3,3-diphenyl-L-Ala-AMBA-DOTA]

- fraction unbound at 0 min, 2.25 kBq/100 µL ([3]; incubation time 0 min): 0.47
- fraction unbound at 120 min, 2.25 kBq/100 µL ([3]; incubation time 120 min): 0.46
- tumour-to-background ratio, fold higher than [68Ga]Ga-P19 ([1]; two hours after administration): ~1.5 fold
SMILES: O=C(O)CC[C@H](NC(=O)N[C@@H](CCCCNC(=O)[C@H](Cc1ccc2ccccc2c1)NC(=O)[C@H]1CC[C@H](CNC(=O)CN2CCN(CC(=O)O)CCN(CC(=O)O)CCN(CC(=O)O)CC2)CC1)C(=O)O)C(=O)O [PSMA-617, Glu-urea-Lys-2-Nal-L-Ala-CHX-DOTA, reference compound]
- Ki (PSMA; ref Benešová et al. [2015]): 2.34 nM

- Protein binding (%) (human plasma proteins [4]; incubation time 0 min): 52.6%
- Protein binding (%) (human plasma proteins [4]; incubation time 30 min): 52.9%
- Protein binding (%) (human plasma proteins [4]; incubation time 60 min): 53.3%
- Protein binding (%) (human plasma proteins [4]; incubation time 120 min): 54.3%
- Binding rate to human plasma proteins (human plasma proteins [4]; overall statement, incubation up to 120 min): approximately 54%
- Stability in human serum (%) ([5]; incubation time 30 min): 97.8%
- Stability in human serum (%) ([5]; incubation time 60 min): 98.2%
- Stability in human serum (%) ([5]; incubation time 120 min): 98.7%
- Stability in Physiological pH (%) ([2]; incubation time 0 min): 98.4%
- Stability in Physiological pH (%) ([2]; incubation time 30 min): 98.5%
- Stability in Physiological pH (%) ([2]; incubation time 60 min): 98.9%
- Stability in Physiological pH (%) ([2]; incubation time 120 min): 98.5%
- tumour-to-blood ratio ([1]; one-hour p.i.): 5.5 ± 2.0
- tumour-to-kidney ratio ([1]; one-hour p.i.): 0.12 ± 0.03
- tumour-to-kidney ratio ([1]; two hours post injection): 1.26 ± 0.46
- tumour-to-blood ratio ([1]; two-hours p.i.): 13.6 ± 7.0
- tumour-to-muscle ratio ([1]; two-hours p.i.): 68.4 ± 66.1
- Stability in human serum (%) [7]: 98.4%
SMILES: O=C([O-])CN1CCN(CC(=O)[O-])CCN(CC(=O)NCC2CCC(C(=O)NC(Cc3ccc4ccccc4c3)C(=O)NCCCCC(NC(=O)NC(CCC(=O)O)C(=O)O)C(=O)O)CC2)CCN(CC(=O)[O-])CC1.[68Ga+3] (centres unmarked) [[^68Ga]Ga-PSMA-617, reference compound]
- Binding to plasma proteins (human plasma proteins [6]; human, ref Benešová et al. [2018]): 59%
- Binding to human plasma proteins (human plasma proteins [6]; ref Umbricht et al. [2018]): 59%
- Binding to mouse serum proteins (mouse serum proteins): 6%
